What was measured:
C57BL/6J mice = assay: In vivo LPS acute systemic inflammation model, serum cytokines and chemokines (Legendplex); design: key to IL-1β in sera, Average / IL-17A in sera, Average / IL-27 in sera, Average / GM-CSF in sera, Average / KC in sera, Average / MCP1 in sera, Average / IP-10 in sera, Average / MIP-1A in sera, Average / MIP-1B in sera, Average / MDC in sera, Average / IL-23 in sera, Average / TNF-α in sera, Average: serum concentration in pg/ml; IL12p70 in sera, Average / IFN-γ in sera, Average: unit: pg/ml; settings: 1 μg LPS i.p.
Experimental: In order to evaluate in vivo the anti-inflammatory effect of the test compounds a model of in vivo LPS acute systemic inflammation was used where C57BL/6J mice were challenged by administration of 1 μg LPS. Each one of the compounds 51 to 53 was administered to C57BL/6J mice per os in two doses of 50 mg. Two hours after administering the first dose, the animals received the second p.o. dose of each compound and were also challenged with 1 μg LPS intraperitoneally. Sera samples were collected 1.5 hrs post induction in order to measure the levels of 13 cytokines using the pro-inflammatory panel from Legendplex (cat no 740446) and following manufacturer's instructions. Four biological replicates were performed and the average and SEM were calculated with the obtained results.
The same protocol was followed but administering compound 53 at 100 mg/kg. In this case both the levels of the 13 cytokines but also of 13 chemokines were measured, using the pro-inflammatory panel from Legendplex (cat no 740007).
The anti-inflammatory effect of the test compounds 51, 52 and 53 was assessed in vivo in the LPS model of acute inflammation. Administration of the endotoxin Lipopolysaccharide (LPS) to mice induces acute inflammatory responses similar to the inflammatory response that occurs during the early stages of septic shock. Shortly after administration of the endotoxin, cytokines and chemokines are released. This model is fast, cost-effective and widely used for screening of anti-inflammatory properties of test items aimed for treatment of a number of inflammatory and autoimmune conditions (Seemann et al., 2017; Stortz et al., 2017).
Sera samples from the treated mice with the 50 mg/Kg doses of the test compounds 51-53 were evaluated using the mouse pro-inflammatory panel of Legendplex and the data acquired are presented as pg/ml in Table 11. Vehicle, 52 and 53 were tested in quadruplicates (vehicle_1-4), 51 in triplicate (51_1-3).
Sera samples from the treated mice with test compounds 53 with 100 mg/Kg were also evaluated using the mouse pro-inflammatory cytokine and chemokine panel of Legendplex and the effect of compound 53 at a higher dose (100 mg/kg) in inhibiting inflammatory cytokines and chemokines is presented in the Table 12 below.

hTNFtg SFs = assay: Wound healing assay on activated SFs; assay type: cell-based, mice; settings: compound 10 μM, 24 h
Experimental: Activated SFs were isolated from hTNFtg mice as described above and they were seeded in 24 well plates at a concentration of 2×10^5 cells/well. The next day a straight-line wound was created on the formed cell monolayer using the tip of a 200 μl pipette. Images of the wounds were captured by microscope at a magnification of 4× at two time points. Time point 0 (i.e. the time of the creation of the wound) as well as 24 h later (t=24 h). The area of the wound was measured at each time point using the software ImageJ.
The percent closure of the wound was calculated using the following formula: [(wound area at t0−wound area at t24)/wound area at t0]*100
The assay for each compound was repeated four times.
The inventors wanted to further explore the potential of the test compounds to reduce the activated phenotype of the arthritogenic SFs and studied their effect on a wound healing assay. In this assay a wound is formed on a monolayer of SFs and the rate of closure of this wound is indicative of the proliferation and migration capacity of the SFs, i.e. the slower the closure of the wound, the less proliferative and migratory are the SFs.
The potential ability of the compounds 53, E and F to inhibit the proliferation and migration of activated SFs, was assessed at a concentration of 10 μM and the wound healing assay was performed using hTNFtg SFs, as these cells show increased proliferation and migration potential (Vasilopoulos et al., 2007). The data shown in Table 10 where the percentages of wound closure area are presented in hTNFtg untreated as well as compound treated cells.

[1] = 50 mg/Kg per os, two doses, sera 1.5 hrs post induction

For `COc1cc(N)c(Cl)cc1C(=O)NCC1(c2ccc(Cl)cc2)CCCCC1` [Compound 51, 4-amino-5-chloro-N-((1-(4-chlorophenyl)cyclohexyl)methyl)-2-methoxybenzamide], the “IL-1α in sera, Average” value (C57BL/6J mice; [1]) was 27.4 pg/mL, the “IL-1β in sera, Average” value (C57BL/6J mice; [1]) was 87.0 pg/mL and the “IL-6 in sera, Average” value (C57BL/6J mice; [1]) was 4702.5 pg/mL. The “IL-10 in sera, Average” value (C57BL/6J mice; [1]) was 1774.5 pg/mL, the “IL-17A in sera, Average” value (C57BL/6J mice; [1]) was 43.8 pg/mL and the “MCP-1 in sera, Average” value (C57BL/6J mice; [1]) was 4689.1 pg/mL.
For `COc1cc(N)c(Cl)cc1C(=O)NCC1(c2ccc(Cl)cc2)CCCCCC1` [Compound 52, 4-amino-5-chloro-N-((1-(4-chlorophenyl)cycloheptyl)methyl)-2-methoxybenzamide], the “IL-1α in sera, Average” value (C57BL/6J mice; [1]) was 43.1 pg/mL, the “IL-1β in sera, Average” value (C57BL/6J mice; [1]) was 118.5 pg/mL and the “IL-6 in sera, Average” value (C57BL/6J mice; [1]) was 3988.8 pg/mL. The “IL-10 in sera, Average” value (C57BL/6J mice; [1]) was 1692.2 pg/mL, the “IL-17A in sera, Average” value (C57BL/6J mice; [1]) was 27.7 pg/mL and the “MCP-1 in sera, Average” value (C57BL/6J mice; [1]) was 4916.5 pg/mL.
`COc1cc(N)c(Cl)cc1C(=O)NCC1(Nc2ccc(Cl)cc2)CCCCCC1` [Compound 53, 4-amino-5-chloro-N-((1-((4-chlorophenyl)amino)cycloheptyl)methyl)-2-methoxybenzamide] was tested, and the “% of wound closure (mean ± SD)” value (hTNFtg SFs) was 67.7 ± 16.2%, the “IL-1α in sera, Average” value (C57BL/6J mice; [1]) was 67.3 pg/mL and the “IL-1β in sera, Average” value (C57BL/6J mice; [1]) was 113.1 pg/mL. The “IL-6 in sera, Average” value (C57BL/6J mice; [1]) was 5145 pg/mL, the “IL-10 in sera, Average” value (C57BL/6J mice; [1]) was 2616.1 pg/mL and the “IL-17A in sera, Average” value (C57BL/6J mice; [1]) was 55.1 pg/mL. The “MCP-1 in sera, Average” value (C57BL/6J mice; [1]) was 5149 pg/mL, the “GM-CSF in sera, Average” value (C57BL/6J mice; 100 mg/kg p.o.) was 9.8 and the “IFN-γ in sera, Average” value (C57BL/6J mice; 100 mg/kg p.o.) was 6.7. The “IL12p70 in sera, Average” value (C57BL/6J mice; 100 mg/kg p.o.) was 5.7, the “IL-1β in sera, Average” value (C57BL/6J mice; 100 mg/kg p.o.) was 12.4 and the “IL-17A in sera, Average” value (C57BL/6J mice; 100 mg/kg p.o.) was 3.7. For the same compound, the “IL-23 in sera, Average” value (C57BL/6J mice; 100 mg/kg p.o.) was 16.6, the “IL-27 in sera, Average” value (C57BL/6J mice; 100 mg/kg p.o.) was 16.1 and the “IP-10 in sera, Average” value (C57BL/6J mice; 100 mg/kg p.o.) was 45.2. For the same compound, the “KC in sera, Average” value (C57BL/6J mice; 100 mg/kg p.o.) was 4227.5, the “MCP1 in sera, Average” value (C57BL/6J mice; 100 mg/kg p.o.) was 1246.2 and the “MDC in sera, Average” value (C57BL/6J mice; 100 mg/kg p.o.) was 56.6. For the same compound, the “MIP-1A in sera, Average” value (C57BL/6J mice; 100 mg/kg p.o.) was 244.3, the “MIP-1B in sera, Average” value (C57BL/6J mice; 100 mg/kg p.o.) was 1301.1 and the “TNF-α in sera, Average” value (C57BL/6J mice; 100 mg/kg p.o.) was 136.8.
`COc1cc(N)c(Cl)cc1C(=O)NCC1(Nc2ccc(F)cc2Cl)CCCCCC1` [E, 4-amino-5-chloro-N-((1-((2-chloro-4-fluorophenyl)amino)cycloheptyl)methyl)-2-methoxybenzamide] was tested, and the “% of wound closure (mean ± SD)” value (hTNFtg SFs) was 73 ± 31.5%.
With `COc1cc(N)c(Cl)cc1C(=O)NCC1(Nc2cccc(OC(F)(F)F)c2)CCCCCC1` [F, 4-amino-5-chloro-2-methoxy-N-((1-((3-(trifluoromethoxy)phenyl)amino)cycloheptyl)methyl)benzamide] the “% of wound closure (mean ± SD)” value (hTNFtg SFs) was 63 ± 11.8%.

Source: patent publication US12686657B2, “Anti-inflammatory carboxamide derivatives” (BIOMEDCODE HELLAS SA, priority 2021, dated 2026)
